According to US7307082B2, “Heterocyclic derivatives as CRF antagonists” (Roche Palo Alto LLC, priority 2003, dated 2007):

Key:
[1] = target: T1, CRF receptor (Homo sapiens, UniProt P34998); test: CRF Receptor Binding Assay (competition with [125I]Tyr0-ovine CRF, IMR-32 cell membranes); details: Human IMR-32 neuroblastoma cell membranes
T1 construct: Cell membranes are prepared according the method of Dieterich and DeSouza (1996); endogenous in cells; host or cells: IMR-32 human neuroblastoma cells (membrane preparation)
T1 sequence (P34998 24-415): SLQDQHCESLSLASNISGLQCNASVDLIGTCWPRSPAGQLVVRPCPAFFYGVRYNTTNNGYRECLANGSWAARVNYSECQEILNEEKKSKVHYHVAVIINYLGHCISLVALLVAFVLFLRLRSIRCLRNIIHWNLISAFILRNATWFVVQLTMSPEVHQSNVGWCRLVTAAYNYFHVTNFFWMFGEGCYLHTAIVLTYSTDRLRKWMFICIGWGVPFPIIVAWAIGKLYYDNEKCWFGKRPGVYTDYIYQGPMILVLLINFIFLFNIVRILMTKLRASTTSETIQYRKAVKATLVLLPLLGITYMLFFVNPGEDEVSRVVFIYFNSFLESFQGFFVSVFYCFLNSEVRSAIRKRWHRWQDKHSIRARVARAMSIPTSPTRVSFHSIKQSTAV
Procedure: CRF Receptor Binding Assay
Human IMR-32 neuroblastoma cells are grown to 80% confluence in MEM medium containing 10% heat-inactivated FBS, 1 mM sodium pyruvate, and 0.1 mM nonessential amino acids. Cell membranes are prepared according the method of Dieterich and DeSouza (1996). The cells (˜5E+9) are resuspended in 10 volumes of wash buffer (5 mM Tris HCl, 10 mM MgCl2, 2 mM EGTA, pH 7.4 at RT), homogenized with a Polytron, and then centrifuged at 45,000 G for 20 min at 4° C. The membrane pellets are washed twice with wash buffer (45,000 G for 20 min at 4° C.) and then resuspended (50 mM Tris HCl, 10 mM MgCl2, 2 mM EGTA, pH 7.4 at RT). Protein concentration is determined using Pierce reagents and BSA as standard. Aliquots of 1-1.5 mL are stored at −80° C. until binding assay.
The competition binding assay is performed in a final volume of 250 μl, which contains assay buffer (50 mM Tris-HCl, 10 mM MgCl2, 2 mM EGTA, 0.2% BSA, 0.1 mM bacitracin and 100 kIU/mL aprotinin pH 7.2 at R.T.), 0.05 nM [^125I]Tyr^0-ovine CRF (Du Pont New England Nuclear), 50 μg of membrane protein, and test compound at various concentrations. Non-specific binding is determined with 1 uM hCRF. […] Unbound radioactivity is removed by four rapid washes (0.8 ml/well) with wash buffer. The radioactivity is quantified using a Packard TopCount. […]

IC50 ([1]; 0.05 nM [125I]Tyr0-ovine CRF, 2 hr at 25° C.) [nM]	Ki ([1]; pKi values are derived from pIC50 values) [nM]	melting point [°C]	Compound
		92 to 94	CCCC(CCC)N1C(=O)CCc2c(C)nc(N(CC)c3ccc(C(C)C)cc3Br)nc21 [Cpd 117, 2-[(2-Bromo-4-isopropyl-phenyl)-eth-yl-amino]-4-methyl-8-(1-propyl-bu-tyl)-5,8-dihydro-6H-pyrido[2,3-d]py-rimidin-7-one]
		182 to 184	CCCC(CCC)N1CCCc2c(C)nc(Nc3ccc(C(C)C)cc3Br)nc21.Cl

Continued, compound first:

Compound	IC50 ([1]; 0.05 nM [125I]Tyr0-ovine CRF, 2 hr at 25° C.) [nM]	Ki ([1]; pKi values are derived from pIC50 values) [nM]	melting point [°C]
CCC(CC)N1CCc2c(C)nc(N(CC)c3c(C)cc(C)cc3C)nc21 [Cpd 2, Ethyl-[7-(1-ethyl-propyl)-4-meth-yl-6,7-dihydro-5H-pyr-rolo[2,3-d]pyrimidin-2-yl]-(2,4,6-tri-methyl-phenyl)-amine;compound with trifluoro-aceticacid]	2090	195	
CCCC(CCC)N1CCCc2c(C)nc(N(CC)c3ccc(C(C)C)cc3Br)nc21.Cl			201 to 205
CCC(CC)N1C(=O)CCc2c(C)nc(Nc3ccc(C(C)C)cc3Br)nc21 [Cpd 113, 2-(2-Bromo-4-isopropyl-phenyl-amino)-8-(1-ethyl-propyl)-4-meth-yl-5,8-dihydro-6H-pyrido[2,3-d]py-rimidin-7-one]			124 to 126
